Broadly, the pKd is the Kd on a negative log10 scale, so that one unit is a factor of ten. As a reminder, the pIC50 is the IC50 on a negative log10 scale, so that one unit is a factor of ten. Lower therefore signals a high IC50. As usually defined, the viability is a read-out of living cells in per cent, often relative to untreated cells. Low readings indicate a greater loss of cells, high ones better survival.

SMILES strings stand for the structures. pIC50, pKd: −log10 of the molar value.

One data set addresses T1, (His)6-SOX11-DBD protein (Homo sapiens, UniProt P35716).
T1 construct: Recombinant (His)6-SOX11-DBD protein was immobilized
T1 sequence (P35716 49-117 limits assumed): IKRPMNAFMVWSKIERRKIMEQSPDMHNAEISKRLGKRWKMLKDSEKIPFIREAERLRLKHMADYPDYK
Description: Surface Plasmon Resonance (SPR) assay. Particulars: immobilized recombinant (His)6-SOX11-DBD, 25° C., compounds 5-40 μM, mean of three experiments. Type of data set: binding.

A further data set concerns Jeko-1 (SOX11+). Nature of the data set: Cell viability assay (CellTiter-Blue resazurin reduction). The data set is classed as cell-based. The conditions noted are these: JeKo-1 cells; for pIC50: 0-40 μM. The essentials: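 Cells were exposed to compound for 72 h, then resazurin reduction (CellTiter-Blue, 2 h) was read by fluorescence and converted to viable cell number via a standard curve. Viability was normalised to 0.2% DMSO-treated cells. IC50 came from a sigmoidal dose-response fit, three separate experiments.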

Where [1] appears, read: Homo sapiens, JeKo-1, 72 h, 20 μM compound, normalized to 0.2% DMSO.

For `Cc1cc(NC(=O)c2ccc3c(c2)NC(=O)C(C)S3)ccc1S(=O)(=O)Nc1ccccc1` (stereo not drawn), the pKd on (His)6-SOX11-DBD protein was 5.60. The compound also showed a negative-log IC50 (pIC50) with Jeko-1 (SOX11+) (Homo sapiens, JeKo-1, 72 h) of 5.00. The viability at 20 µM in the data set with Jeko-1 (SOX11+) (setting [1]) was found to be 1.22%.

Turning to `CCC1Sc2ccc(C(=O)Nc3ccc(S(=O)(=O)Nc4ccccc4)cc3)cc2NC1=O` (stereo not drawn), the pKd at (His)6-SOX11-DBD protein was 5.84. In addition, the negative-log IC50 (pIC50) with Jeko-1 (SOX11+) (Homo sapiens, JeKo-1, 72 h) was 4.92. For the same compound, the viability at 20 µM in the data set with Jeko-1 (SOX11+) (setting [1]) worked out at 36.7%.

As for `CC1Sc2ccc(C(=O)Nc3ccc(S(=O)(=O)Nc4ccccc4)cc3)cc2NC1=O` (stereo not drawn) [drawing 468], on (His)6-SOX11-DBD protein, the negative-log Kd (pKd) was 4.42. Also, the “Jeko-1 Viability at 20 μM (%)” value with Jeko-1 (SOX11+) (20 μM compound, 72 hours, normalized to 0.2% DMSO, 20 µM) is 0.83%. In the data set on Jeko-1 (SOX11+) (72 hours), the pIC50 is 4.90.

These data come from US20230242496A1, “SOX11 INHIBITORS FOR TREATING MANTLE CELL LYMPHOMA” (Icahn School of Medicine At Mount Sinai, priority 2020, published 2023).
